Laboratory results from patent publication US20060142194A1, “Methods and compounds for treating brain amyloidosis” (Evotec NeuroSciences GmbH, priority 2000, published 2006).
“Also recorded” adds a separate entry of the source.

Columns and labels:
[1] = molecular target: T1, NL-1 (neprilysin like 1) (Mus musculus, UniProt Q9JLI3); settings: cited from earlier work
T1 sequence (Q9JLI3 63-765): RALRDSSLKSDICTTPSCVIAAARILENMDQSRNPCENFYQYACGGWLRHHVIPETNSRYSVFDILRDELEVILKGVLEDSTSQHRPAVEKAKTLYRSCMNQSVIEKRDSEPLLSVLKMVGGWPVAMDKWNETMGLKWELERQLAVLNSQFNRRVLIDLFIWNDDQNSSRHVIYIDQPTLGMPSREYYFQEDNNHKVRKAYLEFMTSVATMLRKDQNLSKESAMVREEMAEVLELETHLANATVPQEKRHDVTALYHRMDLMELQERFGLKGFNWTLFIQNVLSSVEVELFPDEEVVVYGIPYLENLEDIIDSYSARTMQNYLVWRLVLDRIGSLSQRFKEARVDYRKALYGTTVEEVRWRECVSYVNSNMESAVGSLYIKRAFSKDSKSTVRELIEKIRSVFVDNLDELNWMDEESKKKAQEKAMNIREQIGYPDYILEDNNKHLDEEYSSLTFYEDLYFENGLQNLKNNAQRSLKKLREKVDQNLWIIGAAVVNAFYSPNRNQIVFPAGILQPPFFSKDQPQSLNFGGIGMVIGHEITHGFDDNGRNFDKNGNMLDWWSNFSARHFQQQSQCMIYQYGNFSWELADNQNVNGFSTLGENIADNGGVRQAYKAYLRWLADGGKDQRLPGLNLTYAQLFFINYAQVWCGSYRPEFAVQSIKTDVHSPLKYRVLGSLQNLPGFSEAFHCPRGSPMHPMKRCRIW

[2] = system: APP; assay: APP levels by Western blots of protein extracts; assay type: in vivo; settings: Aβ42- or vehicle treated, or untreated transgenic mice
Experimental: Western-blot analysis: Protein concentration of brain extracts were determined with the Bredford protein assay and equal amounts of protein (60 μg) were loaded to each lane of 8% acrylamid gels in Laemmli buffer. After electrophoresis proteins were blotted on nitrocellulose membranes (Amersham). Membranes were probed for NEP using the monoclonal antibody 56C6 at a dilution of 1:50. Blots were stripped in a buffer containing 2% SDS, 62.5 mM Tris (pH 6.8) and 100 mM β-mercaptoethanol at 50° C. for 30 minutes. After stripping the membrane were probed sequentially with anti-Alzheimer precursor protein A4 antibody (clone 22C11, 1:1000), IDE-1 (1:800), ACE (1:200), and the polyclonal antibody to 24.15 protein (1:600). Finally, staining for actin (1:1000) was performed as a loading control. […]
(§1) To be sure that no amyloid plaques were missed in the mice, every 50th coronal section (250 μm apart) of all mice was stained, beginning with a random section of the olfactory bulbs. […] Existing plaques in 3 representative sections of each mouse were counted. […] To determine whether the reduced amyloid pathology was associated with reduced concentrations of transgenic Aβ, human Aβ was measured by a sandwich ELISA that specifically recognized intact human Aβ (Nitsch, R. M. et al., Ann. Neurol. in Press). As expected, no human Aβ was detected by ELISA in wild-type mice.

[3] = system: PDAPP transgenic mouse; settings: cited from earlier work
[4] = system: NEP; assay: NEP immunohistochemistry of brain sections after intracranial Aβ42 injection; assay type: in vivo; settings: single intracranial injection of 1 μl aggregated Aβ42 (350 μM); SwAPP and wild-type mice; 11 and 20 weeks after injection; vs PBS
Experimental: (§2) Animals: Transgenic mice expressing the AD-causing Swedish double mutant of the human APP gene were generated and bred as described previously (Hsiao K. K. et al., Neuron 15, 1203-1218, 1995; Hsiao K. et al., Science 274, 99-102, 1996). All mice used in this study were the progeny of a single SwAPP male, crossbred to wild-type littermates. The colony was housed under a light cycle of 12 hours with dry food and water ad libitum. The presence of the transgene was determined by PCR on genomic DNA isolated from tail biopsies using specific primers GTGGATAACCCCTCCCCCAGCCTAGACCA and CTGACCACTCGACCAGGTTCTGGGT to the transgene. […] After the injection, the needle was left in place for 1 more minute, and then was slowly withdrawn over a period of 1 minute.
Preparation of tissue: For combined Western blot analyses and immunohistochemistry, mice were deeply anesthetized and were perfused transcardially using ice-cold PBS (pH 7.4). […]
In contrast, in SwAPP mice as well as in wild-type littermates injected with PBS vehicle alone, neuronal NEP staining was weak and diffuse (FIG. 2 a-c, g-i). […] To confirm this finding, we next analysed brain proteins prepared from Aβ42-injected mice extracts by Western blotting.

[5] = system: metalloprotease 24.15; assay: Metalloprotease 24.15 brain levels; assay type: in vivo, mice; settings: in response to Aβ injections
Experimental: (§3) Preparation of tissue: For combined Western blot analyses and immunohistochemistry, mice were deeply anesthetized and were perfused transcardially using ice-cold PBS (pH 7.4). Frontal cortices of both hemispheres were homogenized in lysis buffer containing 1% Triton X-100, 10 mM Tris, 250 mM sucrose, and 1× complete proteinase inhibitor cocktail, pH=8 (Roche, Switzerland). The remaining brain tissue was fixed over night in 4% paraformaldehyde solution at 4° C. and washed several times in PBS and embedded in paraffin for immuno-histochemistry. For combined immunocytochemistry and Aβ-ELISA, mice were perfused with 4% paraformaldehyde and postfixed in the same solution over night. […]
(§4) Western-blot analysis: Protein concentration of brain extracts were determined with the Bredford protein assay and equal amounts of protein (60 μg) were loaded to each lane of 8% acrylamid gels in Laemmli buffer. […]
(§5) Role of other Aβ degrading enzymes: To determine whether other Aβ-degrading proteases were involved in preventing amyloid formation in the above described mice, brain tissue levels of insulin-degrading enzyme (IDE), a 100 kD Zn-metallo-proteinase that is a major Aβ-degrading enzyme in tissue culture (Qiu W. Q. et al., J. Biol. Chem. 273, 32730-32738, 1998; Vekrellis K. et al., J. Neurosci., 20, 1657-1665, 2000) were analysed by immunohistochemistry and Western blotting. […]

[6] = system: angiotensin converting enzyme (ACE); assay: ACE brain tissue levels; assay type: in vivo; settings: treated vs untreated mice, any examined time point after Aβ42 injection
Experimental: as §3, §4, §5

[7] = system: transgenic SwAPP mice; assay: Brain amyloid plaque staining and counts (thioflavin S, 4G8) in SwAPP mice; assay type: in vivo
Experimental: as §2, with “minute. […]” for “minute.”
as §1

[8] = system: NEP; assay: Western blot and densitometry of NEP in brain extracts after Aβ42 injection; assay type: in vivo; settings: as early as one week after Aβ42 injection; SwAPP and wild-type mice; vs uninjected or PBS-injected
Experimental: Actin was used to control for equal loading (a). […] The intensity of each NEP and actin bands was measured using the NIH-Image software. […] Data represent means of each group+SEM * p≦0.05, ** p≦0.01, Mann-Whitney U test. n=3 for each group.
All mice used in this study were the progeny of a single SwAPP male, crossbred to wild-type littermates. The colony was housed under a light cycle of 12 hours with dry food and water ad libitum. […] After the injection, the needle was left in place for 1 more minute, and then was slowly withdrawn over a period of 1 minute.
Western-blot analysis: Protein concentration of brain extracts were determined with the Bredford protein assay and equal amounts of protein (60 μg) were loaded to each lane of 8% acrylamid gels in Laemmli buffer. After electrophoresis proteins were blotted on nitrocellulose membranes (Amersham). Membranes were probed for NEP using the monoclonal antibody 56C6 at a dilution of 1:50. […]

[9] = system: insulin-degrading enzyme (IDE); assay: IDE brain tissue levels by immunohistochemistry and Western blotting; assay type: in vivo, mice; settings: in response to Aβ42 injections
Experimental: as §3, §4, §5

[10] = system: transgenic SwAPP mice; assay: GFAP staining of reactive astrocytes (astrogliosis); assay type: in vivo
Experimental: Preparation of tissue: For combined Western blot analyses and immunohistochemistry, mice were deeply anesthetized and were perfused transcardially using ice-cold PBS (pH 7.4). Frontal cortices of both hemispheres were homogenized in lysis buffer containing 1% Triton X-100, 10 mM Tris, 250 mM sucrose, and 1× complete proteinase inhibitor cocktail, pH=8 (Roche, Switzerland). The remaining brain tissue was fixed over night in 4% paraformaldehyde solution at 4° C. and washed several times in PBS and embedded in paraffin for immuno-histochemistry. For combined immunocytochemistry and Aβ-ELISA, mice were perfused with 4% paraformaldehyde and postfixed in the same solution over night. The caudal parts of the brains reaching from intraaural 1 to intraaural −2 (Franklin, K. B. J, Paxinos, G. Academic Press, 1997) were dissected and prepared for Aβ ELISA. The remaining brain tissue was embedded in paraffin and then processed for immunohistochemistry. Five μm thick paraffin sections were probed with antibodies against NEP, IDE (Insulin degrading enzyme), ACE (Angiotensin converting enzyme), endopeptidase 24.15 protein, and GFAP (glial fibrillary protein) according to providers' protocols and counterstained with nuclear fast red (Fluka, Switzerland).
Prevention of amyloid formation was accompanied by reduced reactive astrocytosis: Because brain amyloidosis in SwAPP mice is accompanied by reactive astrocytosis, GFAP-reactive astrocytes were analysed in response to the Aβ42-injection protocol (FIG. 6 a-c). […] Similar activation of astrocytes in brain regions unaffected by amyloid plaque formation is a well established finding in transgenic mice that overexpress disease-causing APP mutants (Schenk D. et al., Nature 400, 173-177, 1999). It may be explained by high sensitivity of hippocampal astrocytes to unknown toxic activities related to the expression of the SwAPP transgene; these may well be independent of amyloid plaque formation.

[11] = system: human Aβ; assay: Aβ sandwich ELISA on formic acid extracted brain tissue; assay type: in vivo; settings: SwAPP mice, 20 weeks after injection, n=4; vs untreated SwAPP littermates; p≦0.05
Experimental: as §3
Aβ-ELISA: For quantitation of Aβ content in mouse brain, protein extracts of fixed brain tissue reaching from the stereotaxic coordinates intraaural 1 to intraaural −2 were prepared. […] 150 μl diluted samples or standards (Aβ40 Bachem) were incubated overnight, washed, and detected with biotinylated monoclonal mouse antibody 6H1 directed against amino acids 1-17 of human Aβ (Evotec Neurosciences GmbH) incubated at a concentration of 1 μg/ml in blocking buffer for 2 hours at 37° C., and visualised with a peroxidase reaction using tetramethylbenzidine as substrate, and detection at 450 nm. […]

Row | Compound | inhibition of NL-1 [1] | APP levels [2] | β-amyloid-plaque formation, neuritic dystrophy and astrogliosis ([3]; immunisation of young animals (6 weeks of age)) | extent and progression of AD-like neuropathologies ([3]; treatment of older animals (11 months)) | neuronal NEP immunoreactivity [4] | metalloprotease 24.15 levels [5] | ACE levels [6] | thioflavin S- or 4G8-positive amyloid plaques ([7]; SwAPP mice at 31 weeks of age, 20 weeks after single injection (4/4), vs untreated SwAPP mice) | plaque counts of 4G8 stained amyloid plaques ([7]; SwAPP mice, 20 weeks after injection, vs untreated littermates, p≦0.05) | NEP protein levels in brain extracts (Western blot) [8] | tissue levels of IDE [9] | GFAP-positive astrocytes in hippocampi ([10]; Aβ42-treated SwAPP mice) | amyloid plaque-associated clusters of GFAP-positive cells ([10]; SwAPP mice after Aβ42 injections) | GFAP staining of reactive astrocytes in cerebral cortices ([10]; SwAPP mice, 20 weeks after injection, vs untreated SwAPP littermates) | brain Aβ levels (ELISA, formic acid extracted total Aβ) [11]
1 | CC(C)C[C@H](NP(=O)(O)O[C@@H]1O[C@@H](C)[C@H](O)[C@@H](O)[C@H]1O)C(=O)N[C@@H](Cc1c[nH]c2ccccc12)C(=O)O [phosphoramidon] | efficiently inhibited |  |  |  |  |  |  |  |  |  |  |  |  |  | 
2 | Aβ42: Fibrillar aggregated synthetic Aβ42 prepared by resuspending lyophilized Aβ42 (Bachem) in PBS, pH 7.4 by shaking for 48 hours at 37° C. |  | no difference | essentially prevented | markedly reduced | increased | unchanged | did not differ | significant reduction; also recorded: completely free | significantly reduced; also recorded: marked significant decrease | significant increase; also recorded: significantly higher | no differences | abundant | completely absent | significantly lower | significantly reduced; also recorded: untreated control SwAPP mice (n=4) were significantly higher than in Aβ42-treated SwAPP mice
